From patent publication US20250042890A1, “METHIONINE ADENOSYLTRANSFERASE 2a (MAT2A) INHIBITORS AND USES THEREOF” (Insilico Medicine IP Limited, priority 2021, published 2025) come the findings set out here.

SMILES strings stand for the structures.

The test deals with MAT2A (Homo sapiens (Human), UniProt P31153). Briefly: MAT2A Biochemical Assay. The following applies: Biomol Green readout O.D.620; 1 uM start, 3-fold dilution, 10 doses; read-out: MAT2A enzymatic IC50. On the procedure: Example A: MAT2A Biochemical Assay
Chain of MAT2A (P31153 whole entry, species assumed): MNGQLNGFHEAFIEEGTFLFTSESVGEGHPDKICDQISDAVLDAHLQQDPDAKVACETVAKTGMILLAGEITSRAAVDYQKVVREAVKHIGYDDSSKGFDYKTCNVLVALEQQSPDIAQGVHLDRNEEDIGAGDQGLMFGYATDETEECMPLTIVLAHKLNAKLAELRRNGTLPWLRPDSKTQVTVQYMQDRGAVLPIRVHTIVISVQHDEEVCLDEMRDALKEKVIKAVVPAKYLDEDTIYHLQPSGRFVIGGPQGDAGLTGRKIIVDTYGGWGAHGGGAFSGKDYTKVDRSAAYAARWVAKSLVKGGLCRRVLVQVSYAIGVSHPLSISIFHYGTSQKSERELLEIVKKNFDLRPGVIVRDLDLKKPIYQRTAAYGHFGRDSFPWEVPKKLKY
Compounds described herein were tested as follows:
• (1). Prepared 1×Assay buffer. • (2). Preparation of compound concentration gradient: the compounds test condition were 1 uM start, 3-fold dilution, 10 doses, singlet or duplicate. 100× concentration compounds were prepared in 384-well plate. Then used Echo 550 to transfer 250 nl to a 384-reaction plate for later use. Added 250 nl of 100% DMSO to the negative and positive control wells. • (3). Prepared 1.67× final concentration enzyme solution with 1×Assay buffer. • (4). Added 15 μl of 1.67× Enzyme solution to the compound wells and positive control wells; added 15 μl of 1 Assay buffer to the negative control wells. • (5). Centrifuged at 1000 rpm for 30 seconds and incubate for 15 minutes. • (6). Prepared 2.5× final concentration Substrate mix solution with 1×Assay buffer. • (7). Added 10 μl of 2.5× final concentration Substrate mix solution to start the reaction. • (8). Centrifuged at 1000 rpm for 30 seconds and incubate for 150 minutes. • (9). Added 50 μl Biomol Green to stop the reaction, centrifuge at 1000 rpm for 30 seconds and incubate for 15 minutes. read O.D.620, process data.
• (1) Using GraphPad Prism 5. • (2) % Inh=(Max signal−Compound signal)/(Max signal−Min signal)*100. • (3) Max signal was obtained from the positive control wells. • (4) Min signal was obtained from the negative control wells.
Take `C#CC1CCN(c2nc(=O)n(-c3ccccc3Cl)c3cc(Cl)ccc23)CC1` [Example 13, 7-chloro-1-(2-chlorophenyl)-4-(4-ethynylpiperidin-1-yl)quinazolin-2 (1H)-one]: the IC50 is more than 1 µM. Next, `C#CC1(Nc2nc(=O)n(-c3cccnc3C)c3cc(C(F)(F)F)cc(OC)c23)CCC1` [Example 50]: less than 0.05 µM; `C#CC1(Nc2nc(=O)n(-c3cccnc3C)c3cc(C(F)(F)F)cc(OC)c23)CC1` [Example 49]: less than 0.05 µM. To `C#CCNc1nc(=O)n(-c2cccnc2)c2cc(C(F)(F)F)cc(OCF)c12` [Example 38, 5-(fluoromethoxy)-4-(prop-2-yn-1-ylamino)-1-(pyridin-3-yl)-7-(trifluoromethyl)quinazolin-2 (1H)-one] belongs less than 0.05 µM.

Turning to `C#CCNc1nc(=O)n(-c2cccnc2C)c2cc(C(F)(F)F)cc(OC)c12` [Example 36, 5-methoxy-1-(2-methylpyridin-3-yl)-4-(prop-2-yn-1-ylamino)-7-(trifluoromethyl)quinazolin-2 (1H)-one], the IC50 is less than 0.05 µM. Next, `C#CCNc1nc(=O)n(-c2cccnc2C)c2nc(C(F)(F)F)cc(OC)c12` [Example 42, 5-methoxy-1-(2-methylpyridin-3-yl)-4-(prop-2-yn-1-ylamino)-7-(trifluoromethyl)pyrido[2,3-d]pyrimidin-2 (1H)-one]: less than 0.05 µM; `C#CCNc1nc(=O)n(-c2cnccn2)c2cc(C(F)(F)F)ccc12` [Example 53, 4-(prop-2-yn-1-ylamino)-1-(pyrazin-2-yl)-7-(trifluoromethyl)quinazolin-2 (1H)-one]: less than 0.05 µM. As for `C#CCNc1nc(=O)n(-c2nccnc2C)c2cc(C(F)(F)F)cc(OC)c12` [Example 48, 5-methoxy-1-(3-methylpyrazin-2-yl)-4-(prop-2-yn-1-ylamino)-7-(trifluoromethyl)quinazolin-2 (1H)-one], the 50% inhibitory concentration (IC50) is less than 0.05 µM. Next, `C=CCNc1nc(=O)n(-c2cccnc2)c2cc(C(F)(F)F)ccc12` [Example 76]: less than 0.05 µM; `C#CC1(Nc2nc(=O)n(-c3cccnc3)c3cc(Cl)ccc23)CC1` [Example 4]: less than 0.05 µM.

For the compound `C#CCNc1nc(=O)n(-c2cccnc2)c2nc(C(F)(F)F)ncc12` [Example 61, 4-(prop-2-yn-1-ylamino)-1-(pyridin-3-yl)-7-(trifluoromethyl)pyrimido[4,5-d]pyrimidin-2 (1H)-one], the half-inhibitory concentration (IC50) was less than 0.05 µM. Turning to `C#CCNc1nc(=O)n(-c2cccnc2C)c2cc(C(F)(F)F)ccc12` [Example 33, 1-(2-methylpyridin-3-yl)-4-(prop-2-yn-1-ylamino)-7-(trifluoromethyl)quinazolin-2 (1H)-one], the IC50 is less than 0.05 µM. Regarding `C#CC1(Nc2nc(=O)n(-c3cccnc3)c3cc(C(F)(F)F)cc(OC)c23)CC1` [Example 47, 4-((1-ethynylcyclopropyl)amino)-5-methoxy-1-(pyridin-3-yl)-7-(trifluoromethyl)quinazolin-2 (1B)-one], the concentration for half-maximal inhibition (IC50) is less than 0.05 µM.

Turning to `C=CC1(Nc2nc(=O)n(-c3cccnc3C)c3cc(Cl)cc(OC)c23)CC1` [Example 75, 7-chloro-5-methoxy-1-(2-methylpyridin-3-yl)-4-((1-vinylcyclopropyl)amino)quinazolin-2 (1H)-one], the half-maximal inhibitory concentration (IC50) was less than 0.05 µM.

In the case of `O=c1nc(NCC#CC2CC2)c2ccc(Cl)cc2n1-c1cccnc1` [Example 2, 7-chloro-4-((3-cyclopropylprop-2-yn-1-yl)amino)-1-(pyridin-3-yl)quinazolin-2 (1H)-one], the IC50 was less than 0.05 µM. Next, `C#CCNc1nc(=O)n(-c2cccnc2C)c2cc(Br)cc(OC)c12` [Example 19, 7-bromo-5-methoxy-1-(2-methylpyridin-3-yl)-4-(prop-2-yn-1-ylamino)quinazolin-2 (1H)-one]: less than 0.05 µM; `C#CCN(C)c1nc(=O)n(-c2cccnc2)c2cc(C(F)(F)F)ccc12` [Example 51]: less than 0.05 µM. For `C#CCNc1nc(=O)n(-c2cccnc2)c2cc(C(F)(F)F)ccc12` [Example 7, 4-(prop-2-yn-1-ylamino)-1-(pyridin-3-yl)-7-(trifluoromethyl)quinazolin-2 (1H)-one], the IC50 is less than 0.05 µM. For the compound `C#CC1(Nc2nc(=O)n(-c3cccnc3C)c3cc(C(F)(F)F)ccc23)CC1` [Example 46, 4-((1-ethynylcyclopropyl)amino)-1-(2-methylpyridin-3-yl)-7-(trifluoromethyl)quinazolin-2 (1H)-one], the concentration for half-maximal inhibition (IC50) was less than 0.05 µM.

Take `C#CCNc1nc(=O)n(-c2cccnc2)c2cc(Cl)ccc12` [Example 1, 7-chloro-4-(prop-2-yn-1-ylamino)-1-(pyridin-3-yl)quinazolin-2 (1H)-one]: the IC50 is less than 0.05 µM. Turning to `C=CCNc1nc(=O)n(-c2cccnc2)c2cc(Cl)cc(OC)c12` [Example 73], the half-inhibitory concentration (IC50) is less than 0.05 µM. Consider `C#CC1(Nc2nc(=O)n(-c3cccnc3)c3cc(Cl)cc(OC)c23)CC1` [Example 66], for which the IC50 was less than 0.05 µM.
